Results published in patent US20250257064A1, “TRIFLUOROMETHYL-SUBSTITUTED SULFONAMIDE AS BCL-2-SELECTIVE INHIBITOR” (Chia Tai Tianqing Pharmaceutical Group Co., Ltd., priority 2018, published 2025).

Experiments:
BCL-XL/BAK = target: T1, BCL-XL/BAK (Homo sapiens, UniProt Q07817); experiment: Screening on inhibitory activity for BCL-XL/BAK binding (Cisbio HTRF kit)
T1 construct: purchased Cisbio
Protocol: 1.2 Screening on Inhibitory Activity for BCL-XL/BAK Binding
300 nM Tag1-BCL-XL protein stock solution and 10 μM Tag2-BAK protein stock solution were diluted to 2 nM and 80 nM respectively with dilution buffer in kit (model: BCL-XL/BAK (BH3) BINDING ASSAY KITS, from Cisbio). 5 μL of Tag1-BCL-XL protein diluent was added to each well, then different compounds dissolved with DMSO were added to the wells with a nanoliter pipettor, allowing the final compound concentrations to be 2000 nM to 0.488 nM (4-fold gradient for 7 concentrations in total). Blank control wells (without enzyme) and negative control wells (with enzyme, plus vehicle DMSO) were set, and 2 replicate wells were set. Finally, 5 μL of Tag2-BAK protein diluent was added to each well, and the mixture was mixed well by centrifugation and incubated at 25° C. for 15 min. 100× anti-Tag1-Eu^3+ and 100× anti-Tag2-XL665 were both diluted to 1× working concentration with the detection buffer in the kit. Anti-Tag1-Eu^3+ and anti-Tag2-XL665 were mixed well in a 1:1 ratio, and the mixture was added to wells at 5 µL/well, and incubated at 25° C. for 2 h or more. The plate was read using a PE Envision multi-functional microplate reader (excitation: […], emission: 665 nm) and IC50 (shown in table 1) was calculated by four-parameter fitting.

BCL-2/BAK = target: T2, BCL-2/BAK (Homo sapiens, UniProt P10415); experiment: Screening on inhibitory activity for BCL-2/BAK binding (Cisbio HTRF kit)
T2 construct: purchased Cisbio
T2 sequence (P10415 whole entry, species assumed): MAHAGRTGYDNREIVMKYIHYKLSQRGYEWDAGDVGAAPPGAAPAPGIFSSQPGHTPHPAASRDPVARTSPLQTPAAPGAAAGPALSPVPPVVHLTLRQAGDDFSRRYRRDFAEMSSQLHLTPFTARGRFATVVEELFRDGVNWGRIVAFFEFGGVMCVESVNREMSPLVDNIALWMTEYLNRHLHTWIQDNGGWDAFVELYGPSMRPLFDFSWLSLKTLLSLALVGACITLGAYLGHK
Protocol: 1.1 Screening on Inhibitory Activity for BCL-2/BAK Binding
500 nM Tag1-BCL-2 protein stock solution and 20 μM Tag2-BAK protein stock solution were diluted to 5 nM and 120 nM respectively with dilution buffer in kit (model: BCL-2/BAK (BH3) BINDING ASSAY KITS, from Cisbio). 5 μL of Tag1-BCL-2 protein diluent was added to each well, then different compounds dissolved with DMSO were added to the wells with a nanoliter pipettor, allowing the final compound concentrations to be 200 nM to 0.0488 nM (4-fold gradient for 7 concentrations in total). Blank control wells (without enzyme) and negative control wells (with enzyme, plus vehicle DMSO) were set, and 2 replicate wells were set. Finally, 5 μL of Tag2-BAK protein diluent was added to each well, and the mixture was mixed well by centrifugation and incubated at 25° C. for 15 min. 100× anti-Tag1-Eu^3+ and 100× anti-Tag2-XL665 were both diluted to 1× working concentration with the detection buffer in the kit. Anti-Tag1-Eu^3+ and anti-Tag2-XL665 were mixed well in a 1:1 ratio, and the mixture was added to wells at 5 μL/well, and incubated at 25° C. for 2 h or more. The plate was read using a PE Envision multi-functional microplate reader (excitation: […], emission: 665 nm) and IC50 (shown in table 1) was calculated by four-parameter fitting.

RS4;11 cells = experiment: Inhibitory effect on proliferation of RS4;11 cells (CCK-8); assay type: cell-based, human; settings: Homo sapiens, RS4-11, 72 h
Protocol: Experimental Example 2: Inhibitory Effect of Compounds on Proliferation of RS4;11 Cells
RS4;11 cells (from Nanjing Cobioer) in logarithmic growth phase and good cell condition were added to a centrifuge tube and centrifuged at 1500 rpm for 3 min in a low speed centrifuge. The supernatant was discarded, and 5 mL of complete medium (RPMI basic medium+10 wt % fetal bovine serum (FBS)) was added using a pipette for cell resuspension. The cells were counted using a cell counter, diluted with complete medium to a cell density of 2×10^5 cells/mL, and added with an equivalent amount of RPMI basic medium to adjust the serum concentration to 5% and the cell density to 1×10^5 cells/mL for plate seeding. The cells were seeded on a 96-well plate at 100 μL/well using a pipettor, and incubated in an incubator at 37° C., 5% CO2 with saturated humidity. After 24 h of incubation, compounds were loaded using a nanoliter pipettor, 2 duplicate wells were set for each concentration, and cells without compound were used as negative controls. […] Inhibition rate (%)=(mean value of negative control group—mean value of experimental group)/(mean value of negative control group—mean value of blank group)×100%. A dose-response curve was fitted by four-parameter analysis, with the logarithm of compound concentration serving as abscissa and inhibition rate serving as ordinate, so that IC50 was calculated (FIG. 2).

T1 sequence (Q07817 whole entry, species assumed): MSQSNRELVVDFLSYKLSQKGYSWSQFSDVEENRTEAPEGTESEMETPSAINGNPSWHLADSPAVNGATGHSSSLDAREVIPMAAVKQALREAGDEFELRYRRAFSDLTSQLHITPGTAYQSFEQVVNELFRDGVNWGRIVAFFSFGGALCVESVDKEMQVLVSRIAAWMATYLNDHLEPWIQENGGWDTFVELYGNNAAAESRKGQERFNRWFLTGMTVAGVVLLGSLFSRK

Row | Compound | IC50 (BCL-XL/BAK) [nM] | IC50 (BCL-2/BAK) [nM] | IC50 (RS4;11 cells) [nM]
1 | 4-(4-{[2-(2-chloro-4-trifluoromethylphenyl)-4,4-dimethylcyclohex-1-enyl]methyl}-piperazin-1-yl)-N-({3-nitro-4-[(4-((trifluoromethyl) sulfonyl)morpholin-2-yl)methyl)amino]phenyl}sulfonyl)-2-(1H-pyrrolo[2,3-b]pyridin-5-yloxy)-benzamide [Compound 56-1] | 381 | 3.55 | –
2 | CC1(C)CCC(CN2CCN(c3ccc(C(=O)NS(=O)(=O)c4ccc(NCC5CCOCC5)c([N+](=O)[O-])c4)c(Oc4cnc5[nH]ccc5c4)c3)CC2)=C(c2ccc(Cl)cc2C(F)(F)F)C1 [Compound 3-1, 4-(4-{[2-(4-chloro-2-trifluoromethylphenyl)-4,4-dimethylcyclohex-1-enyl]methyl}-piperazin-1-yl)-N-({3-nitro-4-[(tetrahydro-2H-pyran-4-ylmethyl)amino]phenyl}sulfonyl)-2-(1H-pyrrolo[2,3-b]pyridin-5-yloxy)-benzamide] | > 2000 | 0.86 | –
3 | CC1(C)CCC(CN2CCN(c3ccc(C(=O)NS(=O)(=O)c4ccc(NCC5CCOCC5)c([N+](=O)[O-])c4)c(Oc4cnc5[nH]ccc5c4)c3)CC2)=C(c2ccc(C(F)(F)F)c(Cl)c2)C1 [Compound 4-1, 4-(4-{[2-(3-chloro-4-trifluoromethylphenyl)-4,4-dimethylcyclohex-1-enyl]methyl}-piperazin-1-yl)-N-({3-nitro-4-[(tetrahydro-2H-pyran-4-ylmethyl)amino]phenyl}sulfonyl)-2-(1H-pyrrolo[2,3-b]pyridin-5-yloxy)-benzamide] | > 2000 | 0.8 | –
4 | CC1(C)CCC(CN2CCN(c3ccc(C(=O)NS(=O)(=O)c4ccc(NCCC5CN(S(C)(=O)=O)CCO5)c([N+](=O)[O-])c4)c(Oc4cnc5[nH]ccc5c4)c3)CC2)=C(c2ccc(C(F)(F)F)cc2Cl)C1 (centres unmarked) [Compound 21-1, 4-(4-{[2-(2-chloro-4-trifluoromethylphenyl)-4,4-dimethylcyclohex-1-enyl]methyl}-piperazin-1-yl)-N-({3-nitro-4-[(2-(4-(methylsulfonyl)morpholin-2-yl)ethyl)amino]phenyl}sulfonyl)-2-(1H-pyrrolo[2,3-b]pyridin-5-yloxy)-benzamide] | – | 2.4 | 4.1
5 | CCN1CCOCC1CNc1ccc(S(=O)(=O)NC(=O)c2ccc(N3CCN(CC4=C(c5ccc(C(F)(F)F)cc5Cl)CC(C)(C)CC4)CC3)cc2Oc2cnc3[nH]ccc3c2)cc1[N+](=O)[O-] (centres unmarked) [Compound 24-1, 4-(4-{[2-(2-chloro-4-trifluoromethylphenyl)-4,4-dimethylcyclohex-1-enyl]methyl}-piperazin-1-yl)-N-({3-nitro-4-[((4-ethylmorpholin-3-yl)methyl)amino]phenyl}sulfonyl)-2-(1H-pyrrolo[2,3-b]pyridin-5-yloxy)-benzamide] | 556 | 5.11 | –
6 | CC1(C)CCC(CN2CCN(c3ccc(C(=O)NS(=O)(=O)c4ccc(NC[C@@H]5CCOC5)c([N+](=O)[O-])c4)c(Oc4cnc5[nH]ccc5c4)c3)CC2)=C(c2ccc(C(F)(F)F)cc2Cl)C1 [Compound 36-1, (S)-4-(4-{[2-(2-chloro-4-trifluoromethylphenyl)-4,4-dimethylcyclohex-1-enyl]methyl}-piperazin-1-yl)-N-({3-nitro-4-[((tetrahydrofuran-3-yl)methyl)amino]phenyl}sulfonyl)-2-(1H-pyrrolo[2,3-b]pyridin-5-yloxy)-benzamide] | 157 | 1.78 | –
7 | CC1(C)CCC(CN2CCN(c3ccc(C(=O)NS(=O)(=O)c4ccc(NC[C@@H]5CCCO5)c([N+](=O)[O-])c4)c(Oc4cnc5[nH]ccc5c4)c3)CC2)=C(c2ccc(C(F)(F)F)cc2Cl)C1 [Compound 37-1, (S)-4-(4-{[2-(2-chloro-4-trifluoromethylphenyl)-4,4-dimethylcyclohex-1-enyl]methyl}-piperazin-1-yl)-N-({3-nitro-4-[((tetrahydrofuran-2-yl)methyl)amino]phenyl}sulfonyl)-2-(1H-pyrrolo[2,3-b]pyridin-5-yloxy)-benzamide] | 142 | 1.59 | –
8 | CC1(C)CCC(CN2CCN(c3ccc(C(=O)NS(=O)(=O)c4ccc(NCCC5CCCOC5)c([N+](=O)[O-])c4)c(Oc4cnc5[nH]ccc5c4)c3)CC2)=C(c2ccc(C(F)(F)F)cc2Cl)C1 (centres unmarked) [Compound 45-1, 4-(4-{[2-(2-chloro-4-trifluoromethylphenyl)-4,4-dimethylcyclohex-1-enyl]methyl}-piperazin-1-yl)-N-({3-nitro-4-[((2-tetrahydropyran-3-yl)ethyl)amino]phenyl}sulfonyl)-2-(1H-pyrrolo[2,3-b]pyridin-5-yloxy)-benzamide] | 243 | 2.18 | –
9 | CC1(C)CCC(CN2CCN(c3ccc(C(=O)NS(=O)(=O)c4ccc(NCC5CN(C(=O)CC#N)CCO5)c([N+](=O)[O-])c4)c(Oc4cnc5[nH]ccc5c4)c3)CC2)=C(c2ccc(C(F)(F)F)cc2Cl)C1 (centres unmarked) [Compound 51-1, 4-(4-{[2-(2-chloro-4-trifluoromethylphenyl)-4,4-dimethylcyclohex-1-enyl]methyl}-piperazin-1-yl)-N-({3-nitro-4-[((4-(2-cyanoacetyl)morpholin-2-yl)methyl)amino]phenyl}sulfonyl)-2-(1H-pyrrolo[2,3-b]pyridin-5-yloxy)-benzamide] | – | 1.9 | 1.1
10 | CN(C)CC(=O)N1CCC(CNc2ccc(S(=O)(=O)NC(=O)c3ccc(N4CCN(CC5=C(c6ccc(C(F)(F)F)cc6Cl)CC(C)(C)CC5)CC4)cc3Oc3cnc4[nH]ccc4c3)cc2[N+](=O)[O-])CC1 [Compound 59-1] | – | 1.1 | 1
11 | CN(C)CC(=O)N1CCCC(CNc2ccc(S(=O)(=O)NC(=O)c3ccc(N4CCN(CC5=C(c6ccc(C(F)(F)F)cc6Cl)CC(C)(C)CC5)CC4)cc3Oc3cnc4[nH]ccc4c3)cc2[N+](=O)[O-])C1 (centres unmarked) [Compound 60-1] | – | 1.1 | 1.3
12 | CC(=O)N1CCO[C@@H](CNc2ccc(S(=O)(=O)NC(=O)c3ccc(N4CCN(CC5=C(c6ccc(C(F)(F)F)cc6Cl)CC(C)(C)CC5)CC4)cc3Oc3cnc4[nH]ccc4c3)cc2[N+](=O)[O-])C1 [Compound 61-1, (S)-4-(4-{[2-(2-chloro-4-trifluoromethylphenyl)-4,4-dimethylcyclohex-1-enyl]methyl}-piperazin-1-yl)-N-({3-nitro-4-[((4-acetylmorpholin-2-yl)methyl)amino]phenyl}sulfonyl)-2-(1H-pyrrolo[2,3-b]pyridin-5-yloxy)-benzamide] | – | 1.52 | 3.2
13 | COCC(=O)N1CCOC(CCNc2ccc(S(=O)(=O)NC(=O)c3ccc(N4CCN(CC5=C(c6ccc(C(F)(F)F)cc6Cl)CC(C)(C)CC5)CC4)cc3Oc3cnc4[nH]ccc4c3)cc2[N+](=O)[O-])C1 (centres unmarked) [Compound 72-1, 4-(4-{[2-(2-chloro-4-trifluoromethylphenyl)-4,4-dimethylcyclohex-1-enyl]methyl}-piperazin-1-yl)-N-({3-nitro-4-[(2-(4-(2-methoxyacetyl)morpholin-2-yl)ethyl)amino]phenyl}sulfonyl)-2-(1H-pyrrolo[2,3-b]pyridin-5-yloxy)-benzamide] | 122 | 2.32 | –
